Assay results from US20220073874A1, “METHODS FOR ENHANCING DIRECT REPROGRAMMING OF CELLS” (UNIVERSITY OF SOUTHERN CALIFORNIA, priority 2020, published 2022).

Tests used:
[1] = system: mouse embryonic fibroblasts (MEFs); assay: biotinylated-trimethylpsoralen (bTMP) immunofluorescence, negative DNA supercoiling; assay type: cell-based; details: 100 μM for 15 minutes (FIG. 12A-B)
Description: Biotinylated-trimethylpsoralen (bTMP) Immunofluorescence. One day after addition of N3 media (and without addition of glial cultures), cells were treated with 1 μM aphidicolin for 1.5-2 hours in N3 media. For control experiments, MEFs were treated with or without 100 μM bleomycin prior to incubation with psoralen. Then cells were incubated with 0.3 mg/mL EZ-Link Psoralen-PEG3-Biotin (Thermo Cat. No: 29986) for 15 minutes. Cultures were then exposed to 3 kJ m-2 of […] light (Fotodyne UV Transilluminator 3-3000 with 15W bulbs) for 15 minutes at room temperature in the dark followed by 3 washes in PBS. Then cells were fixed with cold 70% ethanol for 30 minutes at 4° C. followed by another 3 washes in PBS. Cells were then incubated with Alexa Fluor 594 Streptavidin (Thermo Cat. No: 532356) for one hour at room temperature in the dark, washed with PBS 3 times, and then stained with Hoescht (1:1000) for 10 minutes at room temperature in the dark. Coverslips were mounted onto glass slides using lmmuMount and imaged using the Zeiss LSM 800 confocal microscope.

[2] = system: mouse embryonic fibroblasts (MEFs); assay: viable cells by FSC and SSC profile via FACS; details: 6FDDRR, 4 dpi (FIG. 9L)
[3] = system: mouse embryonic fibroblasts (MEFs); assay: EU incorporation (transcription rate) by flow cytometry; assay type: cell-based; details: Control-Pure and 6FDDRR cells, 4 dpi (FIG. 2L)
[4] = system: mouse embryonic fibroblasts (MEFs); assay: EdU incorporation (DNA synthesis, S phase) by flow cytometry
[5] = system: mouse embryonic fibroblasts (MEFs); assay type: cell-based; details: 6FDD condition, 14 dpi (FIG. 9G)

With bleomycin the “biotinylated TMP intercalation” value [1] was “decreased”.

In the case of `C[C@@]1(CO)[C@H](O)CC[C@@]2(C)[C@H]1CC[C@H]1C[C@@H]3C[C@@]12CC[C@]3(O)CO` [Aphidicolin, aphidicolin], the “cell count (total viable cells)” value [2] is reported as “only slightly reducing”, the transcription rates [3] is reported as “increased” and the “percent of cells in S phase” value ([4]; EdU incorporation at 4 dpi, 1 μM for 18 hours, 6FDDRR (FIG. 9J-K)) is reported as “dramatically reduced”. The EdU incorporation ([4]; uninfected MEFs, 10 μM for 2 hr (FIG. 12N)) was “did not incorporate EdU”.

`CO[C@@]12[C@H](COC(N)=O)C3=C(C(=O)C(C)=C(N)C3=O)N1C[C@@H]1N[C@@H]12` [mitomycin C] was tested, and the iMN conversion [5] was “impaired”.
